Experimental data: PubChem BioAssay (NCI)
Several values for one entry are separate records, joined by “and”; a condition that tells them apart may be missing. Equal values may be shown once.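 In this assay, cells in 96-well plates receive the compound at five concentrations for 48 hours. Endpoints are linearly interpolated between the surrounding concentrations. Abbreviation: GI50, concentration required for 50% inhibition of growth. The concentration for full growth arrest is given as TGI.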 *1 amine or outer side, *2 acyl side, *3 side chain or, on linkers, in order; H or OH if unused. Where a SMILES comes first, the peptide text is derived from it. Bridges are numbered along the chain shown (N, C = ends). Roman numbers before positions name the chains, in order. [ ]: non-standard residue; d: D form. ξ: configuration not given here. Actinocin(1to9) = Cc1c2oc3c(C)ccc(C(=O)[*:2])c3nc-2c(C(=O)[*:1])c(N)c1=O; Pro(4-oxo) = O=C1CN[C@H](C(=O)O)C1; Thr(3ξ) = CC(O)[C@H](N)C(=O)O; NMeV = CN[C@H](C(=O)O)C(C)C; Sar = CNCC(=O)O

Assays:
Assay in all cases: DTP human tumour cell line panel, 48 h
MDA-MB-468 breast = tested on: MDA-MB-468 breast
NCI-H460 lung = tested on: NCI-H460 lung
OVCAR-3 ovarian = tested on: OVCAR-3 ovarian
SN12C renal = tested on: SN12C renal
MDA-MB-231 breast = tested on: MDA-MB-231 breast
SF-539 CNS = tested on: SF-539 CNS
TK-10 renal = tested on: TK-10 renal
MOLT-4 leukemia = tested on: MOLT-4 leukemia
A498 renal = tested on: A498 renal
KM12 colon = tested on: KM12 colon
OVCAR-8 ovarian = tested on: OVCAR-8 ovarian
EKVX NSCLC = tested on: EKVX NSCLC
SK-MEL-5 melanoma = tested on: SK-MEL-5 melanoma
SNB-75 CNS = tested on: SNB-75 CNS
HCC-2998 colon = tested on: HCC-2998 colon
MDA-MB-435 = tested on: MDA-MB-435
SW-620 colon = tested on: SW-620 colon
HCT-15 colon = tested on: HCT-15 colon
T-47D breast = tested on: T-47D breast
MALME-3M melanoma = tested on: MALME-3M melanoma
SF-268 CNS = tested on: SF-268 CNS
NCI-H522 lung = tested on: NCI-H522 lung
M14 melanoma = tested on: M14 melanoma
NCI/ADR-RES ovarian = tested on: NCI/ADR-RES ovarian
CCRF-CEM leukemia = tested on: CCRF-CEM leukemia
SR leukemia = tested on: SR leukemia
BT-549 breast = tested on: BT-549 breast
U251 CNS = tested on: U251 CNS
K-562 leukemia = tested on: K-562 leukemia
HOP-62 NSCLC = tested on: HOP-62 NSCLC
RXF 393 renal = tested on: RXF 393 renal
HL-60(TB) leukemia = tested on: HL-60(TB) leukemia
PC-3 prostate = tested on: PC-3 prostate
786-0 renal = tested on: 786-0 renal
NCI-H23 lung = tested on: NCI-H23 lung
COLO 205 colon = tested on: COLO 205 colon
IGROV1 ovarian = tested on: IGROV1 ovarian
OVCAR-4 ovarian = tested on: OVCAR-4 ovarian
HS 578T breast = tested on: HS 578T breast
OVCAR-5 ovarian = tested on: OVCAR-5 ovarian
SNB-19 CNS = tested on: SNB-19 CNS
DU-145 prostate = tested on: DU-145 prostate
RPMI-8226 leukemia = tested on: RPMI-8226 leukemia
SK-MEL-2 melanoma = tested on: SK-MEL-2 melanoma
UACC-62 melanoma = tested on: UACC-62 melanoma
SK-OV-3 ovarian = tested on: SK-OV-3 ovarian
SK-MEL-28 melanoma = tested on: SK-MEL-28 melanoma
SF-295 CNS = tested on: SF-295 CNS
HOP-92 NSCLC = tested on: HOP-92 NSCLC

SMILES: COc1ccc(-c2nnc(N3CCN(C(=O)CN4CCN(c5ccc(OC)cc5)CC4)CC3)nc2-c2ccc(OC)cc2)cc1
- GI50 (MDA-MB-468 breast): 4230 nM
- TGI (MDA-MB-468 breast): 21700 nM

SMILES: Cc1ncc(C(=O)Nc2ccc(CN3CCN(C)CC3)c(C(F)(F)F)c2)cc1C#Cc1cnc(NC2CC2)c2ncccc12
- GI50 (MDA-MB-468 breast): 3920 nM
- TGI (MDA-MB-468 breast): 9320 nM

SMILES: CCCCCCCCCCCCCCCCCCNC(=O)[C@H]1CSC(c2cccs2)N1 (stereo not given in full)
- GI50 (MDA-MB-468 breast): 9320 nM
- TGI (MDA-MB-468 breast): > 50000 nM

SMILES: NC(=O)c1cccc(Nc2nccc(Nc3cccc(F)c3)n2)c1
- GI50 (MDA-MB-468 breast): 3880 nM
- TGI (MDA-MB-468 breast): 12800 nM

SMILES: COCCOCCOCc1n(Cc2ccc3ccccc3n2)c2ccccc2[n+]1Cc1ccc2ccccc2c1
- GI50 (MDA-MB-468 breast): 259 nM
- TGI (MDA-MB-468 breast): 996 nM

SMILES: COc1ccc(/C=C2/CCc3cc4ccc(OC)cc4[o+]c32)c(O)c1
- GI50 (MDA-MB-468 breast): 14000 nM
- TGI (MDA-MB-468 breast): 34900 nM

SMILES: O=S1(=O)NCCCN1CCNc1nccc(-c2c(-c3cccc(O)c3)nc3sccn23)n1
- GI50 (MDA-MB-468 breast): 13300 nM
- TGI (MDA-MB-468 breast): > 86100 nM

SMILES: CCCCCCCCCCCC[n+]1ccccc1 (tested in a mixture with another compound)
- GI50 (MDA-MB-468 breast): 246 nM
- TGI (MDA-MB-468 breast): 3360 nM

SMILES: CCN(CC)CCNC(=O)c1c(C)[nH]c(/C=C2\C(=O)Nc3ccc(F)cc32)c1C
- GI50 (MDA-MB-468 breast): > 10000 nM and 3250 nM and 1410 nM
- TGI (MDA-MB-468 breast): > 10000 nM and 6210 nM and 4310 nM

SMILES: C=C1CC2(OC1=O)C(=O)N(CCCN1C(=O)C3(CC(=C)C(=O)O3)c3ccccc31)c1ccccc12 (stereo not given)
- GI50 (MDA-MB-468 breast): 1280 nM
- TGI (MDA-MB-468 breast): 3250 nM

SMILES: CCC(=C(c1ccc(OCCCN(C)C)cc1)c1ccc(OCCCN(C)C)cc1)c1ccc(Cl)cc1
- GI50 (MDA-MB-468 breast): 1150 nM
- TGI (MDA-MB-468 breast): 3740 nM

SMILES: O=S(=O)(CCOCc1ccc(-c2ccc3ncnc(Nc4ccc(OCc5cccc(F)c5)c(Cl)c4)c3c2)o1)c1ccccc1
- GI50 (MDA-MB-468 breast): 105 nM
- TGI (MDA-MB-468 breast): 2330 nM

SMILES: O=C1C(Cl)=C(Nc2ccccc2)C(=O)c2ccccc21
- GI50 (MDA-MB-468 breast): 1520 nM
- TGI (MDA-MB-468 breast): 3100 nM

SMILES: CCC1=C[C@@H]2CN(C1)Cc1c([nH]c3ccccc13)[C@@](C(=O)OC)(c1cc3c(cc1OC)N(C)[C@H]1[C@@](O)(C(=O)OC)[C@H](OC(C)=O)[C@]4(CC)[C@@H]5C[C@@H]5CN5CC[C@]31[C@@H]54)C2
- GI50 (MDA-MB-468 breast): < 5 nM
- TGI (MDA-MB-468 breast): 5740 nM

SMILES: C[C@H](Cn1ncnn1)Nc1ncc2cc(Oc3ccc(F)cc3F)c(=O)n(C)c2n1
- GI50 (MDA-MB-468 breast): > 25000 nM
- TGI (MDA-MB-468 breast): > 25000 nM

SMILES: Cc1nc(Nc2n[nH]c3c2CN(C(=O)N[C@H](CN(C)C)c2ccccc2)C3(C)C)c2sccc2n1
- GI50 (MDA-MB-468 breast): 247 nM and 226 nM
- TGI (MDA-MB-468 breast): 2260 nM and 2470 nM

SMILES: Cc1c2oc3c(C)ccc(C(=O)N[C@@H]4C(=O)N[C@H](C(C)C)C(=O)N5CCC[C@H]5C(=O)N(C)CC(=O)N(C)[C@@H](C(C)C)C(=O)OC4C)c3nc-2c(C(=O)N[C@@H]2C(=O)N[C@H](C(C)C)C(=O)N3CC(=O)C[C@H]3C(=O)N(C)CC(=O)N(C)[C@@H](C(C)C)C(=O)OC2C)c(N)c1=O (stereo not given in full) (I: [Thr(3ξ)][dV][Pro(4-oxo)][Sar][NMeV] / II: [Thr(3ξ)][dV]P[Sar][NMeV]; ester I:1-I:C, II:1-II:C; linker I:N-II:N via Actinocin(1to9))
- GI50 (NCI-H460 lung): < 10 nM
- TGI (NCI-H460 lung): 10300 nM
- GI50 (OVCAR-3 ovarian): < 10 nM
- TGI (OVCAR-3 ovarian): 1980 nM
- GI50 (SN12C renal): < 10 nM
- TGI (SN12C renal): 579 nM
- GI50 (MDA-MB-231 breast): < 10 nM
- TGI (MDA-MB-231 breast): 16.7 nM
- GI50 (SF-539 CNS): < 10 nM
- TGI (SF-539 CNS): < 10 nM
- GI50 (TK-10 renal): < 10 nM
- TGI (TK-10 renal): 6400 nM
- GI50 (MOLT-4 leukemia): < 10 nM
- TGI (MOLT-4 leukemia): 25.2 nM
- GI50 (A498 renal): < 10 nM
- TGI (A498 renal): < 10 nM
- GI50 (KM12 colon): < 10 nM
- TGI (KM12 colon): 6980 nM
- GI50 (OVCAR-8 ovarian): < 10 nM
- TGI (OVCAR-8 ovarian): 17700 nM
- GI50 (EKVX NSCLC): < 10 nM
- TGI (EKVX NSCLC): < 33.2 nM
- GI50 (SK-MEL-5 melanoma): < 10 nM
- TGI (SK-MEL-5 melanoma): < 10 nM
- GI50 (SNB-75 CNS): < 10 nM
- TGI (SNB-75 CNS): < 10 nM
- GI50 (HCC-2998 colon): < 10 nM
- TGI (HCC-2998 colon): < 11.4 nM
- GI50 (MDA-MB-435): < 10 nM
- TGI (MDA-MB-435): < 10 nM
- GI50 (SW-620 colon): < 10 nM
- TGI (SW-620 colon): 11300 nM
- GI50 (HCT-15 colon): < 10 nM
- TGI (HCT-15 colon): 10100 nM
- GI50 (T-47D breast): < 10 nM
- TGI (T-47D breast): < 10 nM
- GI50 (MALME-3M melanoma): < 10 nM
- TGI (MALME-3M melanoma): < 10 nM
- GI50 (SF-268 CNS): < 10 nM
- TGI (SF-268 CNS): 1100 nM
- GI50 (NCI-H522 lung): < 10 nM
- TGI (NCI-H522 lung): < 10 nM
- GI50 (M14 melanoma): < 10 nM
- TGI (M14 melanoma): < 21.5 nM
- GI50 (NCI/ADR-RES ovarian): 52 nM
- TGI (NCI/ADR-RES ovarian): 1060 nM
- GI50 (CCRF-CEM leukemia): < 10 nM
- TGI (CCRF-CEM leukemia): 35.2 nM
- GI50 (SR leukemia): < 10 nM
- TGI (SR leukemia): < 10.4 nM
- GI50 (BT-549 breast): < 10 nM
- TGI (BT-549 breast): < 10 nM
- GI50 (U251 CNS): < 10 nM
- TGI (U251 CNS): 5750 nM
- GI50 (K-562 leukemia): < 10 nM
- TGI (K-562 leukemia): 163 nM
- GI50 (HOP-62 NSCLC): < 10 nM
- TGI (HOP-62 NSCLC): < 10 nM
- GI50 (RXF 393 renal): < 10 nM
- TGI (RXF 393 renal): < 10 nM
- GI50 (HL-60(TB) leukemia): < 10 nM
- TGI (HL-60(TB) leukemia): 48.3 nM
- GI50 (PC-3 prostate): < 10 nM
- TGI (PC-3 prostate): 294 nM
- GI50 (786-0 renal): < 10 nM
- TGI (786-0 renal): 10300 nM
- GI50 (NCI-H23 lung): < 10 nM
- TGI (NCI-H23 lung): < 10 nM
- GI50 (COLO 205 colon): < 10 nM
- TGI (COLO 205 colon): < 10 nM
- GI50 (IGROV1 ovarian): < 10 nM
- TGI (IGROV1 ovarian): 4590 nM
- GI50 (OVCAR-4 ovarian): < 10 nM
- TGI (OVCAR-4 ovarian): 4600 nM
- GI50 (HS 578T breast): < 10 nM
- TGI (HS 578T breast): 197 nM
- GI50 (MDA-MB-468 breast): < 10 nM
- TGI (MDA-MB-468 breast): < 10 nM
- GI50 (OVCAR-5 ovarian): < 10 nM
- TGI (OVCAR-5 ovarian): 3200 nM
- GI50 (SNB-19 CNS): < 10 nM
- TGI (SNB-19 CNS): 172 nM
- GI50 (DU-145 prostate): < 10 nM
- TGI (DU-145 prostate): 30300 nM
- GI50 (RPMI-8226 leukemia): < 10 nM
- TGI (RPMI-8226 leukemia): 14.7 nM
- GI50 (SK-MEL-2 melanoma): < 10 nM
- TGI (SK-MEL-2 melanoma): < 10 nM
- GI50 (UACC-62 melanoma): < 10 nM
- TGI (UACC-62 melanoma): < 10 nM
- GI50 (SK-OV-3 ovarian): < 10 nM
- TGI (SK-OV-3 ovarian): 490 nM
- GI50 (SK-MEL-28 melanoma): < 10 nM
- TGI (SK-MEL-28 melanoma): < 10 nM
- GI50 (SF-295 CNS): < 10 nM
- TGI (SF-295 CNS): 92 nM
- GI50 (HOP-92 NSCLC): < 10 nM
- TGI (HOP-92 NSCLC): < 10 nM
